# Experimental data published in ChEMBL document CHEMBL4507310, “Data for DCP probe A-1211212” (2021).
# pKi: −log10 of the molar value.
# What was measured:
# [1] = target: Sigma intracellular receptor 2 (Homo sapiens, UniProt Q5BJF2); assay: GPCRScan assay: inhibition of Sigma 2; design: radioligand conc. used [nm] 5.0, parental cells HEKT
# [2] = target: Translocator protein (Rattus norvegicus) (UniProt P16257); assay: BZD (peripheral) Eurofins-Cerep binding assay; design: ligand concentration 0.2 nM; settings: filed as antagonist, Compound concentration 10.0 uM
# [3] = target: GABA-A receptor; alpha-1/beta-2/gamma-2 (Homo sapiens) (UniProt P14867+P47870+P18507); assay: GABAA1 (h) (alpha1,beta2,gamma2) Eurofins-Cerep binding assay; type: protein-complex assay; design: ligand concentration 15 nM; settings: filed as agonist, Compound concentration 10.0 uM
# [4] = target: 5-hydroxytryptamine receptor 2B (Homo sapiens) (UniProt P41595); assay: 5-HT2B (h) Eurofins-Cerep binding assay; design: ligand concentration 0.2 nM; settings: filed as agonist, Compound concentration 10.0 uM
# [5] = target: ALK tyrosine kinase receptor (Homo sapiens) (UniProt Q9UM73); settings: Compound concentration 1000.0 nM
# [6] = target: Cyclin-dependent kinase-like 1 (Homo sapiens) (UniProt Q00532); settings: Compound concentration 1000.0 nM
# [7] = target: Cyclin-dependent kinase-like 5 (Homo sapiens) (UniProt O76039); settings: Compound concentration 1000.0 nM
# [8] = target: Dual specificity protein kinase CLK1 (Homo sapiens) (UniProt P49759); settings: Compound concentration 1000.0 nM
# [9] = target: Megakaryocyte-associated tyrosine-protein kinase (Homo sapiens) (UniProt P42679); settings: Compound concentration 1000.0 nM
# Megakaryocyte-associated tyrosine-protein kinase (Homo sapiens), sequence (P42679 whole entry): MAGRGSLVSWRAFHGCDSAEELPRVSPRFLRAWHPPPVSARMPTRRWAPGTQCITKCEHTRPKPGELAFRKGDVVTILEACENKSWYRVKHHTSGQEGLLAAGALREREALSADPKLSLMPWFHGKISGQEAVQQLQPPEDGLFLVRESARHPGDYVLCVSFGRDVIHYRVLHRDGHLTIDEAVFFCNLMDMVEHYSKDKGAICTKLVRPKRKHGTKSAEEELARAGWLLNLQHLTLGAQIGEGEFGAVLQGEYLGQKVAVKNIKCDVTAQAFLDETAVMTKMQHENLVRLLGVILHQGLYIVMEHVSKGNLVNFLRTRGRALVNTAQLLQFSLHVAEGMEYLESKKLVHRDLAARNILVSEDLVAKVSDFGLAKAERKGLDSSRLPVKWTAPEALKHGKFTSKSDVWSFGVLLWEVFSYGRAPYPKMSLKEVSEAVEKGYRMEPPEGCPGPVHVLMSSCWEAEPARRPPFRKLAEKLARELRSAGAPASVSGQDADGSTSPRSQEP
# [10] = target: Serine/threonine-protein kinase 17B (Homo sapiens) (UniProt O94768); settings: Compound concentration 1000.0 nM
# [11] = target: Dual specificity tyrosine-phosphorylation-regulated kinase 1B (Homo sapiens) (UniProt Q9Y463); settings: Compound concentration 1000.0 nM
# Dual specificity tyrosine-phosphorylation-regulated kinase 1B (Homo sapiens), sequence (Q9Y463 whole entry, looked up): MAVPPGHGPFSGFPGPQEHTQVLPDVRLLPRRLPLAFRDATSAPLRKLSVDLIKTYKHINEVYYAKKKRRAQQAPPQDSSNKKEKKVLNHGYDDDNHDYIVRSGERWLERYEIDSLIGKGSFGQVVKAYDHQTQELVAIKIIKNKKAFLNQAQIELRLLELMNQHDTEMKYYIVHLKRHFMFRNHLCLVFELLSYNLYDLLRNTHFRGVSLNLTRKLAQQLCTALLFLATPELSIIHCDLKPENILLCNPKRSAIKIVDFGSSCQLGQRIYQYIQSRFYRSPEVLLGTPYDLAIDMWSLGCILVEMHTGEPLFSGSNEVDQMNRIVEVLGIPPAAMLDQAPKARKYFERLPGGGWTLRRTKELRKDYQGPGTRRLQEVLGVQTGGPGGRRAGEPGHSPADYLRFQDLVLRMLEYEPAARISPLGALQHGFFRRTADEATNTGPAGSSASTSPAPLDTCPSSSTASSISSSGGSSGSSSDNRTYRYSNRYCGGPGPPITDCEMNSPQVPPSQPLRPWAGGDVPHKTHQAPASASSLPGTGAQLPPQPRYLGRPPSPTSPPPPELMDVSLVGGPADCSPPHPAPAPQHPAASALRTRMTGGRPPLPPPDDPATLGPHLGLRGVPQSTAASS
# [12] = tested on: Epidermal growth factor receptor (Homo sapiens), P00533 [UNDEFINED MUTATION]; settings: Compound concentration 1000.0 nM
# [13] = target: Receptor tyrosine-protein kinase erbB-2 (Homo sapiens) (UniProt P04626); settings: Compound concentration 1000.0 nM
# [14] = target: Mitogen-activated protein kinase 3 (Homo sapiens) (UniProt P27361); settings: Compound concentration 1000.0 nM
# [15] = target: Mitogen-activated protein kinase 7 (Homo sapiens) (UniProt Q13164); settings: Compound concentration 1000.0 nM
# Mitogen-activated protein kinase 7 (Homo sapiens), sequence (Q13164 2-816 limits assumed): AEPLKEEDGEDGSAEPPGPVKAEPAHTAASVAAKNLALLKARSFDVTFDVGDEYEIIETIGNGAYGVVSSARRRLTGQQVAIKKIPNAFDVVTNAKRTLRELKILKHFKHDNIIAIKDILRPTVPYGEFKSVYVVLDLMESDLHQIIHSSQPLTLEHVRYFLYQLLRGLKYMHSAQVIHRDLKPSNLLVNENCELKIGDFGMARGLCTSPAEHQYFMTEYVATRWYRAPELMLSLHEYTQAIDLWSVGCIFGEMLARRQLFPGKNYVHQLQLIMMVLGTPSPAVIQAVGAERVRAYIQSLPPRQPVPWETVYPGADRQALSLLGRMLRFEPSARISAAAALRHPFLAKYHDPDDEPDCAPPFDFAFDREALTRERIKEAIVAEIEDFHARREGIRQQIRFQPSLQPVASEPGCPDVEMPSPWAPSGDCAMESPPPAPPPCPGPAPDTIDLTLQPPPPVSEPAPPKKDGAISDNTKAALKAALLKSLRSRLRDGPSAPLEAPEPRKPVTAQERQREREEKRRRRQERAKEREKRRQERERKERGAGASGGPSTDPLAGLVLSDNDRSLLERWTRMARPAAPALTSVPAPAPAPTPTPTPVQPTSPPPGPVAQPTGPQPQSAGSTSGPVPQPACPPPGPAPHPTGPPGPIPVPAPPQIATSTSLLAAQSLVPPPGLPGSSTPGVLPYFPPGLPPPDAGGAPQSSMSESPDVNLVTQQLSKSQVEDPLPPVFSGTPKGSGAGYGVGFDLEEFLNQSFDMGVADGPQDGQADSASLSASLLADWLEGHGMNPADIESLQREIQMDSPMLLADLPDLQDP
# [16] = target: Focal adhesion kinase 1 (Homo sapiens) (UniProt Q05397); settings: Compound concentration 1000.0 nM
# Focal adhesion kinase 1 (Homo sapiens), sequence (Q05397 2-1052 limits assumed): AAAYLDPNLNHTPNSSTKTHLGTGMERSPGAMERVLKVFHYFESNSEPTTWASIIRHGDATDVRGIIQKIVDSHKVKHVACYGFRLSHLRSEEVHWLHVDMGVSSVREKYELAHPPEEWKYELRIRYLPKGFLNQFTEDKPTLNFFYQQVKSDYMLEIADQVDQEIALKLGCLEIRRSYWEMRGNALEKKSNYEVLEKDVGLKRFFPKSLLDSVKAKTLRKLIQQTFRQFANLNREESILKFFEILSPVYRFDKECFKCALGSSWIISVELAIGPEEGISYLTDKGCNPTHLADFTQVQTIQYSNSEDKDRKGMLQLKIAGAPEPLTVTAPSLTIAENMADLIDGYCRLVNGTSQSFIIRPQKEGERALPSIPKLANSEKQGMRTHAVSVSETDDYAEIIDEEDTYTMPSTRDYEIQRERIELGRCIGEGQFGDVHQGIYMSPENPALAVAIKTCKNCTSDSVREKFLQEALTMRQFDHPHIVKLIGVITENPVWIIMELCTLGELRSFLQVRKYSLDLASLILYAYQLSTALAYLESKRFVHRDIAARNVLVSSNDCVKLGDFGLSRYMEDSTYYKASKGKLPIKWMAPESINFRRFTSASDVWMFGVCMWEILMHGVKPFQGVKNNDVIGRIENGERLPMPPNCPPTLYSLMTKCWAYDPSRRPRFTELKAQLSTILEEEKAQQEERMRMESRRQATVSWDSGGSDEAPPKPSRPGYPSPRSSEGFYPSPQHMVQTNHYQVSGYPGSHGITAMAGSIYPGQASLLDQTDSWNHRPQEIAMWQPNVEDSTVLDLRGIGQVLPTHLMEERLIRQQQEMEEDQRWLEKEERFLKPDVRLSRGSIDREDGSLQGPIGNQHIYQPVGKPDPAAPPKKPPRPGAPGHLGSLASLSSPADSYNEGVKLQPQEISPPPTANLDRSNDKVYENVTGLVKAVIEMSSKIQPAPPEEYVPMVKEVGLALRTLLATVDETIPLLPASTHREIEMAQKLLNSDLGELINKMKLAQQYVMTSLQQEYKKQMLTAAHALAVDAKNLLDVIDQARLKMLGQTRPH
# [17] = target: Fibroblast growth factor receptor 4 (Homo sapiens) (UniProt P22455); settings: Compound concentration 1000.0 nM
# [18] = tested on: Receptor-type tyrosine-protein kinase FLT3 (Homo sapiens), P36888 [D835V]; settings: Compound concentration 1000.0 nM
# [19] = target: Homeodomain-interacting protein kinase 2 (Homo sapiens) (UniProt Q9H2X6); settings: Compound concentration 1000.0 nM
# [20] = target: Inhibitor of nuclear factor kappa-B kinase subunit alpha (Homo sapiens) (UniProt O15111); settings: Compound concentration 1000.0 nM
# [21] = target: Tyrosine-protein kinase JAK3 (Homo sapiens) (UniProt P52333); settings: Compound concentration 1000.0 nM
# [22] = target: Mitogen-activated protein kinase 8 (Homo sapiens) (UniProt P45983); settings: Compound concentration 1000.0 nM
# [23] = tested on: Mast/stem cell growth factor receptor Kit (Homo sapiens), P10721 [A829P]; settings: Compound concentration 1000.0 nM
# Mast/stem cell growth factor receptor Kit (Homo sapiens), P10721 [A829P], sequence (P10721 whole entry A829P): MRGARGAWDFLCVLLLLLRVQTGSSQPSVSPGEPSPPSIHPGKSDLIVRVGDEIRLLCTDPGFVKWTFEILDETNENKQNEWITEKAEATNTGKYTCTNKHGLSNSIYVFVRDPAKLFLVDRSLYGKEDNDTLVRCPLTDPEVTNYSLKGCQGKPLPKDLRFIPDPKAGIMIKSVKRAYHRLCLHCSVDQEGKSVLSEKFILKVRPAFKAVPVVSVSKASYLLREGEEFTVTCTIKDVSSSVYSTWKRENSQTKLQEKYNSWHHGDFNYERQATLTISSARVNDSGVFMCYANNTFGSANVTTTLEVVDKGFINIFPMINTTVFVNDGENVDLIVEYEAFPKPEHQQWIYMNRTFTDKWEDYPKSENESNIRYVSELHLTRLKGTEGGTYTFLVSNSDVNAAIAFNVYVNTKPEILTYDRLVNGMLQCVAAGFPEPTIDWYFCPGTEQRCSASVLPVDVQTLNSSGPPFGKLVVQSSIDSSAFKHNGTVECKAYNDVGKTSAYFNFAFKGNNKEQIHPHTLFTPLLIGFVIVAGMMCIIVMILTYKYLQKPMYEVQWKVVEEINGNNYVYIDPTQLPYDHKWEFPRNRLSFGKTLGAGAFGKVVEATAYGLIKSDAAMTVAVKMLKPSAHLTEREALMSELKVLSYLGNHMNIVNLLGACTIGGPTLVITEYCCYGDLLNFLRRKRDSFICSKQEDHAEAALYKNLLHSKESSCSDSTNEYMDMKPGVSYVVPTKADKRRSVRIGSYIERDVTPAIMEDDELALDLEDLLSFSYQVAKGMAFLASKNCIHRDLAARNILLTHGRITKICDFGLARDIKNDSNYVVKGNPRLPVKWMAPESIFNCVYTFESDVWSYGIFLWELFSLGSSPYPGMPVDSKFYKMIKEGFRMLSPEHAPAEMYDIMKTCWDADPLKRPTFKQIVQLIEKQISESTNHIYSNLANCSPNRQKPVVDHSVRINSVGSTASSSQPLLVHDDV
# [24] = tested on: Mast/stem cell growth factor receptor Kit (Homo sapiens), P10721 [V559D,V654A]; settings: Compound concentration 1000.0 nM
# Mast/stem cell growth factor receptor Kit (Homo sapiens), P10721 [V559D,V654A], sequence (P10721 whole entry V559D/V654A): as the sequence (P10721 whole entry A829P) above, with V559D, V654A, P829A counted along it
# [25] = target: Serine/threonine-protein kinase 10 (Homo sapiens) (UniProt O94804); settings: Compound concentration 1000.0 nM
# [26] = target: Mitogen-activated protein kinase kinase kinase kinase 3 (Homo sapiens) (UniProt Q8IVH8); settings: Compound concentration 1000.0 nM
# [27] = target: MAP/microtubule affinity-regulating kinase 4 (Homo sapiens) (UniProt Q96L34); settings: Compound concentration 1000.0 nM
# MAP/microtubule affinity-regulating kinase 4 (Homo sapiens), sequence (Q96L34 whole entry): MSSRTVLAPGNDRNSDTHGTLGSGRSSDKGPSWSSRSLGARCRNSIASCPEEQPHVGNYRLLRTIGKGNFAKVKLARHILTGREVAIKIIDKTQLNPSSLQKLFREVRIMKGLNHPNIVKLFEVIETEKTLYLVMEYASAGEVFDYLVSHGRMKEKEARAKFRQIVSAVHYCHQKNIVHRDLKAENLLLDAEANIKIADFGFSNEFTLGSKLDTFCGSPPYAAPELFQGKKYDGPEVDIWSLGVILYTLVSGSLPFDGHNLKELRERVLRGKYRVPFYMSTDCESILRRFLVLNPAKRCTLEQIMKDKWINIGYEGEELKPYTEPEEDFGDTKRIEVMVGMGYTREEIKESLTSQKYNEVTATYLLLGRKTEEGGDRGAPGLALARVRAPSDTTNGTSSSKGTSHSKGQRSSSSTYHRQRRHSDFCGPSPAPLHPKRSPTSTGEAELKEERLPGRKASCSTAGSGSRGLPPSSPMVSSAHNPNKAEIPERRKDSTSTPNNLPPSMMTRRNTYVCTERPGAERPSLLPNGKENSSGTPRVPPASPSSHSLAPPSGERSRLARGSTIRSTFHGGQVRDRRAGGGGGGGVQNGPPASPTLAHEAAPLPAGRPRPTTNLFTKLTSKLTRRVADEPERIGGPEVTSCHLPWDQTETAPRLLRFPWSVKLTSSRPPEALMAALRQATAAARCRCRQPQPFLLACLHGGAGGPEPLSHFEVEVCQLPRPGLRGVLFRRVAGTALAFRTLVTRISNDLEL
# [28] = target: Dual specificity mitogen-activated protein kinase kinase 5 (Homo sapiens) (UniProt Q13163); settings: Compound concentration 1000.0 nM
# [29] = target: Myosin light chain kinase (Homo sapiens) (UniProt Q32MK0); settings: Compound concentration 1000.0 nM
# [30] = target: Serine/threonine-protein kinase PAK 6 (Homo sapiens) (UniProt Q9NQU5); settings: Compound concentration 1000.0 nM
# [31] = tested on: Phosphatidylinositol 4,5-bisphosphate 3-kinase catalytic subunit alpha isoform (Homo sapiens), P42336 [E545K]; settings: Compound concentration 1000.0 nM
# [32] = tested on: Phosphatidylinositol 4,5-bisphosphate 3-kinase catalytic subunit alpha isoform (Homo sapiens), P42336 [I800L]; settings: Compound concentration 1000.0 nM
# [33] = target: Serine/threonine-protein kinase pim-2 (Homo sapiens) (UniProt Q9P1W9); settings: Compound concentration 1000.0 nM
# [34] = target: Phosphatidylinositol 4-phosphate 5-kinase type-1 gamma (Homo sapiens) (UniProt O60331); settings: Compound concentration 1000.0 nM
# [35] = target: Protein kinase C eta type (Homo sapiens) (UniProt P24723); settings: Compound concentration 1000.0 nM
# [36] = target: Serine/threonine-protein kinase D2 (Homo sapiens) (UniProt Q9BZL6); settings: Compound concentration 1000.0 nM
# [37] = target: Ribosomal protein S6 kinase alpha-6 (Homo sapiens) (UniProt Q9UK32); settings: Compound concentration 1000.0 nM
# [38] = target: Ribosomal protein S6 kinase beta-1 (Homo sapiens) (UniProt P23443); settings: Compound concentration 1000.0 nM
# [39] = target: Serine/threonine-protein kinase Sgk1 (Homo sapiens) (UniProt O00141); settings: Compound concentration 1000.0 nM
# [40] = target: Uncharacterized serine/threonine-protein kinase SBK3 (Homo sapiens) (UniProt P0C264); settings: Compound concentration 1000.0 nM
# [41] = target: Tyrosine-protein kinase Srms (Homo sapiens) (UniProt Q9H3Y6); settings: Compound concentration 1000.0 nM
# [42] = target: Tyrosine-protein kinase SYK (Homo sapiens) (UniProt P43405); settings: Compound concentration 1000.0 nM
# [43] = target: 5-hydroxytryptamine receptor 1E (Homo sapiens) (UniProt P28566); settings: Compound concentration 10.0 uM
# [44] = target: D(1B) dopamine receptor (Homo sapiens) (UniProt P21918); settings: Compound concentration 10.0 uM
# Sigma intracellular receptor 2, sequence (Q5BJF2 whole entry): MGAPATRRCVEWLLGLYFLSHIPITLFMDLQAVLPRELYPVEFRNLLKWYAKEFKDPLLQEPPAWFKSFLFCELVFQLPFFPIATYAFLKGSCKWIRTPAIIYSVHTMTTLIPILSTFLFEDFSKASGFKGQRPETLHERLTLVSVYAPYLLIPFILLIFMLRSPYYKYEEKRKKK
smiles,measurement,setting,value
O=C(NS(=O)(=O)c1ccc(NCC2CCOCC2)c([N+](=O)[O-])c1)c1ccc(N2CCN(Cc3ccc(C(F)(F)F)cc3-c3ccc(Cl)cc3)CC2)cc1Oc1cnc2[nH]ccc2c1 [A-1210227],pKi,[1],5.08
same,% Inhibition of Control Specific Binding (Mean n=2),[2],36%
same,% Inhibition of Control Specific Binding (Mean n=2),[3],-0.7%
same,% Inhibition of Control Specific Binding (Mean n=2),[4],-51.4%
same,residual activity,[5],94%
same,residual activity,[6],100%
same,residual activity,[7],74%
same,residual activity,[8],69%
same,residual activity,[9],100%
same,residual activity,[10],100%
same,residual activity,[11],80%
same,residual activity,[12],100%
same,residual activity,[13],100%
same,residual activity,[14],98%
same,residual activity,[15],100%
same,residual activity,[16],100%
same,residual activity,[17],96%
same,residual activity,[18],100%
same,residual activity,[19],100%
same,residual activity,[20],81%
same,residual activity,[21],85%
same,residual activity,[22],78%
same,residual activity,[23],99%
same,residual activity,[24],100%
same,residual activity,[25],100%
same,residual activity,[26],92%
same,residual activity,[27],85%
same,residual activity,[28],75%
same,residual activity,[29],100%
same,residual activity,[30],73%
same,residual activity,[31],100%
same,residual activity,[32],100%
same,residual activity,[33],73%
same,residual activity,[34],100%
same,residual activity,[35],100%
same,residual activity,[36],100%
same,residual activity,[37],100%
same,residual activity,[38],81%
same,residual activity,[39],88%
same,residual activity,[40],100%
same,residual activity,[41],79%
same,residual activity,[42],99%
same,inhibition,[43],10.4%
same,inhibition,[44],9.7%
CO[C@H]1CC[C@H](CNc2ccc(S(=O)(=O)NC(=O)c3ccc(N4CCN(CC5=C(c6ccc(Cl)cc6)CC(C)(C)CC5)CC4)cc3Oc3cnc4[nH]ccc4c3)cc2[N+](=O)[O-])CC1 [A-1211212],pKi,[1],5.83
same,% Inhibition of Control Specific Binding (Mean n=2),[2],44.9%
same,% Inhibition of Control Specific Binding (Mean n=2),[3],-12.2%
same,% Inhibition of Control Specific Binding (Mean n=2),[4],-142%
same,residual activity,[5],100%
same,residual activity,[6],94%
same,residual activity,[7],74%
same,residual activity,[8],92%
same,residual activity,[9],89%
same,residual activity,[10],91%
same,residual activity,[11],71%
same,residual activity,[12],100%
same,residual activity,[13],54%
same,residual activity,[14],80%
same,residual activity,[15],88%
same,residual activity,[16],100%
same,residual activity,[17],87%
same,residual activity,[18],100%
same,residual activity,[19],100%
same,residual activity,[20],100%
same,residual activity,[21],84%
same,residual activity,[22],82%
same,residual activity,[23],100%
same,residual activity,[24],93%
same,residual activity,[25],74%
same,residual activity,[26],99%
same,residual activity,[27],83%
same,residual activity,[28],66%
same,residual activity,[29],100%
same,residual activity,[30],75%
same,residual activity,[31],96%
same,residual activity,[32],98%
same,residual activity,[33],88%
same,residual activity,[34],100%
same,residual activity,[35],60%
same,residual activity,[36],100%
same,residual activity,[37],81%
same,residual activity,[38],86%
same,residual activity,[39],100%
same,residual activity,[40],83%
same,residual activity,[41],89%
same,residual activity,[42],62%
same,inhibition,[43],-1.62%
same,inhibition,[44],34.1%
